Data published in patent US10568975B2, “Nanoparticles for magnetic resonance imaging tracking and methods of making and using thereof” (The Johns Hopkins University, priority 2013, dated 2020).

Assay: CEST contrast of surface-conjugated polymeric nanoparticles and DYD peptide
Type: physicochemical
Protocol: Polymeric particle preparation: The peptide contrast agent, propargylglycine-W-(DYD)6-NH2, was synthesized on a microwave-assisted peptide synthesizer Libertyl (CEM, USA). The CEST nanoparticles were then prepared by standard coupling chemistry. NH2PEG-N3 was coupled to carboxylates on the surface of polystyrene (PS) particles in the presence of EDC and NHS in 200 mM sodium borate buffer pH 7.8 at RT. Propargylglycine-W-(DYD)6-NH2 peptide was coupled with PS-PEG-N3 in the presence of catalytic amount of CuAcAc, TBTA, and excess ascorbic acid in sodium phosphate buffer pH 7, under nitrogen, using click chemistry. Biodegradable CEST nanoparticles based on the polymer of poly(lactic-co-glycolic) acid-co-PEG (PLGA-PEG) were synthesized using a similar procedure and formulated using a oil-in-water emulsion method.
The nanoparticles are suitable for tumor delivery. As the interior of the nanoparticles has reduced water accessibility compared to liposomes, the CEST agent was conjugated to the surface of the particle as shown in FIGS. 5(a) through 5(c). Two versions were prepared, one with a short (0.6 kDa) and a second with a longer PEG spacer (5.6 kDa). […] The DYD peptide provides contrast centered around 2.5 ppm from water, which should allow discrimination with the BA liposomes through multi-color CEST imaging.

CEST contrast centre, offset from water: around 2.5 ppm
Substance: propargylglycine-W-(DYD)6-NH2 [DYD peptide]
